Laboratory results reported in article PMC8765781, “A platform of assays for the discovery of anti-Zika small-molecules with activity in a 3D-bioprinted outer-blood-retina model” (PLoS ONE, 2022).
Like-named read-outs stand apart in the source and are kept apart here.

How the values were obtained:
[1] = test system: wild-type ZIKV (Ugandan MR766 strain) in Vero cells; experiment: ZIKV cytopathic effect (CPE) inhibition qHTS assay, CellTiter-Glo readout; type: cell-based, Zika virus; settings: for IC50: 48 h, read-out: ZIKV-infection (CPE, ZIKV Antiviral Assays), IC50
[2] = test system: caspase-3 activity induced by ZIKV in Vero cells; experiment: cells; type: cell-based; settings: Zika virus, Vero, 48 h, read-out: Caspase 3 (ZIKV Antiviral Assays), IC50
[3] = test system: ZIKV-RLuc (Cambodian strain FSS13025); experiment: microbe, parasite or virus in culture; type: cell-based, Zika virus; settings: for IC50 / AC50: Zika virus, Vero; for IC50: 48 h, read-out: Rluc-ZIKV (ZIKV Antiviral Assays), IC50
[4] = test system: ZIKV-mCherry (Cambodian strain FSS13025); experiment: microbe, parasite or virus in culture; type: cell-based, Zika virus; settings: for AC50: Zika virus, Vero
[5] = test system: mCherry-ZIKV in human neuronal progenitor cells; experiment: microbe, parasite or virus in culture; type: cell-based, Zika virus
[6] = test system: DENV (Dengue virus type 2, strain New Guinea C)
in vitro [7] = settings: African green monkey; for CC50 at 48 h: Vero cells
in vitro [8] = settings: human
in vitro [9] = settings: human; remark: listed apart in the source
[10] = Zika virus, Vero, read-out: Log AC50 (M) (converted)
[11] = read-out: Log AC50 (M) (converted)

Row | SMILES | Efficacy [1] | AC50 ([1]; Zika virus, Vero) | IC50 ([1]; Zika virus, Vero) | AC50 [1, 10] | IC50 [2] | IC50 [3] | CC-v2 (curve class of the dose response curve) [4] | Efficacy (difference between neutral response and maximum compound response) [4] | Max Resp (difference between neutral response and response at highest compound concentration) [4] | CC50 (in vitro [7]) | CC-v2 (curve class classification of the dose response curve) [1] | AC50 [4] | AC50 [4, 11] | CC50 at 48 h (in vitro [7]) | CC50 (in vitro [9]) | also measured
1 | CCC[S+](=O)([O-])Nc1ccc(F)c(C(=O)c2c[nH]c3ncc(-c4ccc(Cl)cc4)cc23)c1F [NCGC00250399-05] | -40.165 | 1.46e-06 M | 1.46 µM | 1.46e-06 M | 8.31 µM | 9.28 µM | 5 | 0 | -69.344 | > 50 µM | – | – | – | – | – | CC-v2 (curve class) [5]: 4; Efficacy [5]: -22.524; Max Resp [5]: -6.687; IC50 ([5]; Zika virus, Neuronal progenitor cell, read-out: NPC (ZIKV Antiviral Assays), IC50): 35.5 µM; DENV active Yes/No [6]: Yes; SI value DENV (CC50/EC50) [6]: 4.3; Selectivity Index DENV (CC50/EC50) [6]: 4; SI value ZIKV (CC50/EC50) (ZIKV): 14; Selectivity Index ZIKV (CC50/EC50) (ZIKV): 14; ZIKV active Yes/No (ZIKV): Yes; SI value WHV (CC50/EC50) (WNV (Kern515/WN02)): 2; Selectivity Index WHV (CC50/EC50) (WNV (Kern515/WN02)): 2; WHV active Yes/No (WNV (Kern515/WN02)): No; YFV active Yes/No (YFV (YFV 17D)): No; CC50 (in vitro [8]): > 30 µM
2 | COc1cccc(-n2nc(C(=O)O)cc2-c2ccc(C3CCCCC3)c(Cl)c2)c1 [NCGC00379183-01] | -41.012 | 2.91e-05 M | 29.1 µM | 2.91e-05 M | 26.3 µM | 18.5 µM | 5 | -42.035 | -100.305 | – | -3 | 1.68e-05 M | 1.68e-05 M | > 50 µM | 25.1 µM | CC-v2 (curve class) [5]: -3; Efficacy [5]: -112.723; Max Resp [5]: -95.876; AC50 ([5]; Zika virus, Neuronal progenitor cell): 5.01e-05 M; AC50 ([5]; Zika virus, Neuronal progenitor cell, read-out: Log AC50 (M) (converted)): 5.01e-05 M
3 | C=C(CO)[C@@]12O[C@@H]1[C@@]1(C)C(=CC2=O)CC[C@@H](O)[C@@H]1C [NCGC00380396-01] | -65.778 | 8.2e-06 M | 8.2 µM | 8.2e-06 M | 0.01 µM | 4.14 µM | -1.2 | -43.557 | -98.628 | > 50 µM | -1.2 | 1.34e-06 M | 1.34e-06 M | – | > 30 µM | –
4 | COc1cc2c(cc1OC)[C@@H]1[C@H](O)[C@@H](OC)C=C3CCN(C2)[C@H]31 [NCGC00384634-01] | -55.9 | 5.7e-06 M | 5.7 µM | 5.7e-06 M | 1.29 µM | 4.55 µM | -1.2 | -42.96 | -99.819 | > 50 µM | -1.2 | 8.26e-07 M | 8.26e-07 M | – | > 30 µM | –
5 | COc1ccc(C(O)C(C)OC2OC(CO)C(O)C(O)C2O)cc1 (centres unmarked) [NCGC00385130-01] | -87.993 | 2.02e-05 M | 20.2 µM | 2.02e-05 M | 0.01 µM | 0.001 µM | 4 | 0 | -28.221 | – | -3 | – | – | > 50 µM | > 30 µM | –
6 | CC1(C)CC2C(O)C3=C(CC(C)(O)C2C1)C(=O)OC3 (centres unmarked) [NCGC00385131-01] | -83.269 | 2.31e-05 M | 23.1 µM | – | 8.31 µM | 0.02 µM | -1.2 | -69.698 | -44.202 | – | – | 2.67e-09 M | 2.67e-09 M | > 50 µM | > 30 µM | Curve class [1]: -3; AC50 ([1]; Zika virus, Vero, read-out: Log AC50 (converted)): 2.31e-05 M; Emax ([1]; Zika virus, Vero, read-out: Max response): 3.01%; DENV active Yes/No [6]: No; ZIKV active Yes/No (ZIKV): No; WHV active Yes/No (WNV (Kern515/WN02)): No; YFV active Yes/No (YFV (YFV 17D)): No
7 | CC(=O)OC[C@]12[C@H](OC(C)=O)C(=O)[C@@H]3[C@@H](O)[C@@]14O[C@@]3(C)COC(=O)c1cccnc1[C@@H](C)[C@H](C)C(=O)O[C@@H]([C@H](OC(C)=O)[C@@H]2OC(C)=O)[C@]4(C)O [NCGC00385298-01] | -97.679 | 1.72e-05 M | 17.2 µM | 1.72e-05 M | 9.86 µM | 9.81 µM | -1.3 | -66.581 | -100.048 | > 50 µM | -2.1 | 3.53e-06 M | 3.53e-06 M | – | > 30 µM | CC-v2 (curve class classification v2 of the dose response curve) [3]: -2.3; Efficacy (difference between neutral response and maximum compound response) [3]: -117.521; Max Resp (difference between neutral response and compound response for highest compound concentration) [3]: -98.025; AC50 [3]: 9.81e-06 M; AC50 [3, 11]: 9.81e-06 M; AC50 (Vero cells): 9.81 µM; Log AC50 (M) (Vero cells): -5.0083 M
8 | COc1cc2c(c(OC)c1CC=C(C)C)C[C@H](c1ccc(O)c(CC=C(C)C)c1O)CO2 [NCGC00385627-01] | -25.574 | 1.78e-05 M | 17.8 µM | 1.78e-05 M | 16.3 µM | 11.5 µM | 4 | -33.338 | -100.29 | – | – | – | – | > 50 µM | > 30 µM | –
9 | CN[C@H](CC(C)C)C(=O)N[C@H]1C(=O)N[C@@H](CC(N)=O)C(=O)N[C@H]2C(=O)N[C@H]3C(=O)N[C@H](C(=O)N[C@H](C(=O)O)c4cc(O)cc(O)c4-c4cc3ccc4O)[C@H](O[C@H]3C[C@](C)(N)[C@@H](O)[C@H](C)O3)c3ccc(c(Cl)c3)Oc3cc2cc(c3O[C@@H]2O[C@H](CO)[C@@H](O)[C@H](O)[C@H]2O[C@H]2C[C@](C)(NCc3ccc(-c4ccc(Cl)cc4)cc3)[C@@H](O)[C@H](C)O2)Oc2ccc(cc2Cl)[C@H]1O [NCGC00485478-01] | -25.057 | 1.37e-05 M | 13.7 µM | 1.37e-05 M | > 48 µM | 12.3 µM | 4 | 0 | -93.894 | > 50 µM | – | – | – | – | > 30 µM | –
